Data taken from publication PMC6407204, “Oral administration of the cannabigerol derivative VCE-003.2 promotes subventricular zone neurogenesis and protects against mutant huntingtin-induced neurodegeneration” (Translational Neurodegeneration, 2019).

Tests used:
S. typhimurium TA98 = test: AMES reverse mutation assay, TA98; type: cell-based; conditions: TA98, S9 yes
Method: (§1) Supplementary file 40035_2019_148_MOESM4_ESM.pdf: Additional file 4: AMES Data Summary. AMES Experimental Procedure. Approximately ten million bacteria are exposed in triplicate to VCE-003-.2 (7.8, 15.6, 31.3, 62.5, 125 and 250 μg/ml), a negative control (vehicle) and a positive control for 90 min in medium containing a low concentration of histidine (sufficient for about 2 doublings). The cultures were then diluted into indicator medium lacking histidine and dispensed into 48 wells of a 384 well plate (micro-plate format, MPF). The plate was incubated for 48 h at 37 °C, and the number of wells showing growth were counted and compared to the vehicle control. An increase in the number of colonies of at least two-fold over baseline (mean + SD of the vehicle control) and a dose response indicates a positive response. […] Where indicated, S9 fraction from the livers of Aroclor 1254-treated rats was included in the incubation at a final concentration of 4.5%. An NADPH-regenerating system is also included to ensure a steady supply of reducing equivalents. The strains used in this study were S. typhimurium TA98 (hisD3052, rfa, uvrB/pKM10 for detection of frame-shift mutations) and S. typhimurium TA100 ([…], rfa, uvrB/pKM101 for detection of base-pair substitutions). VCE-003.2 was assessed for its mutagenic potential in the AMES reverse mutation assay. This test was performed in the absence and presence of S9 metabolic activation. […] The positive controls all behaved as expected. (PDF 568 kb)

S. typhimurium TA100 = test: AMES reverse mutation assay, TA100; type: cell-based; conditions: TA100, S9 yes
Method: as §1

[1] = Microsomal metabolic stability; conditions: human, microsomes, pH 7.4
Method: The final incubation volume was 25 μL. […] The reactions were stopped by the addition of 50 μL methanol containing internal standard at the appropriate time points. The incubation plates were centrifuged at 2500 rpm for 20 min at 4 °C to precipitate the protein. Following protein precipitation, the sample supernatants were analyzed using LC-MS/MS. From a plot of ln peak area ratio (compound peak area/internal standard peak area) against time, the gradient of the line was determined. Subsequently, half-life and intrinsic clearance was calculated using the equations below: Elimination rate constant (k) = (− gradient).

murine models of HD = system: murine models of HD; set-up: method as in PMID 25252936; conditions: 3-nitropropionic acid injection model and R6/2 model, via PPARγ; cited from earlier work

Compound: Nc1cccc2cc3ccccc3cc12 [aminoanthracene, reference compound]
- AMES Result (S. typhimurium TA98): Positive
- AMES Result (S. typhimurium TA100): Positive

Compound: COc1ccc2c(c1)[C@]13CCCC[C@@H]1[C@H](C2)N(C)CC3 [Dextrom Etorphan, dextromethorphan]
- half-life [1]: 58.1 min
- microsomal CLint [1]: 23.9 µL/min/mg

Compound: CCCCCc1cc(O)c(C/C=C(\C)CCC=C(C)C)c(O)c1 [CBG, Cannabigerol]
- half-life [1]: 13.4 min
- microsomal CLint [1]: 103 µL/min/mg
- motor symptoms, neuroinflammation and neurodegeneration in HD models (murine models of HD): alleviates motor symptoms, neuroinflammation and neurodegeneration
